# Assay results published in paper PMC11971462, “Generation and validation of a novel multitarget small molecule in glioblastoma” (Cell Death & Disease, 2025).
# pIC50: −log10 of the molar value.
# Key:
# glioma cells = experiment: MTT cell viability, summary for glioma cells; format: cell-based; conditions: Homo sapiens, 72 h, summary statement, read-out: IC50 cell viability in different glioma cells
# Protocol: MTT assay was used to study cell viability. For that, cells were seeded at a density of 1.5 × 10^3 cells/well in 96-well plates, incubated overnight and then treated with increasing concentrations of DDI199. After 72 h of treatment, MTT absorbance was measured at 570 nm. GraphPad Prism software was used to analyze results and calculate IC50 values.
# GNS166 cells = experiment: Cell cycle analysis by flow cytometry; format: cell-based, human; conditions: for Cell subpopulation in Sub G1: non-treated 1.9%; for Cell subpopulation in G2/M phase: non-treated 25%
# Protocol: Cells were harvested using accutase and washed with PBS. 1·10^6 cells were fixed with 70% cold ethanol at −20 °C for at least 24 h, and incubated with 0.5% Triton X-100 and 25 µg/mL RNase A in PBS for 30 min at room temperature. Then, DNA was stained with […] propidium iodide for 15 min and samples were analyzed using a CytoFLEX flow cytometer (Beckman Coulter Co.).
smiles,measurement,setting,value
C#CCN(Cc1cc2cc(OCCCN3CCCCC3)ccc2n1S(=O)(=O)c1ccccc1)C(=O)CCCCCCC(=O)NO [DDI199],pIC50,glioma cells,> 5.30
same,Cell subpopulation in Sub G1,"GNS166 cells; GNS166, 5 µM",7.2%
same,Cell subpopulation in G2/M phase,"GNS166 cells; GNS166, 5 µM",35%
same,Cell subpopulation in Sub G1,"GNS166 cells; GNS166, 10 µM",11.9%
same,Cell subpopulation in G2/M phase,"GNS166 cells; GNS166, 10 µM",32%
